Assay results: PubChem BioAssay AID179 (DTP/NCI, 2004)
Activity calls are given as the source filed them.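 How the source made its calls: active means compounds giving half or more protection of infected cells from virus-caused growth loss, again on retest; inactive means the rest.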

Tested on: CEM cells HIV-1 protection, formazan growth assay
Assay: NCI AIDS Antiviral Assay
Settings: for IC50: measured here: growth of uninfected CEM cells
How it was run: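 Category rules: moderately active means at least 50% protection on retest, and confirmed active means 100% protection reproducibly. The underlying data came from a formazan growth assay in HIV-1-infected CEM cells.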

Structure (SMILES) | EC50 | IC50 | outcome
C=C1N(c2nc(Cl)nc(Cl)n2)c2ccccc2C1(C)C | > 200 µM | 186 µM | –
N/C(=N/n1c(=S)[nH]c2ccccc2c1=O)Nn1c(=S)[nH]c2ccccc2c1=O | > 200 µM | 19.1 µM | –
COC1CC(CC(C)=O)CN(C#N)CCc2c1[nH]c1ccccc21 (configuration not stated) | > 132 µM | > 132 µM | –
Cc1cc(S(=O)(=O)n2ccnc2Oc2ccccc2N)c(SSc2cc(Cl)c(C)cc2S(=O)(=O)n2ccnc2Oc2ccccc2N)cc1Cl | > 100 µM | 19.5 µM | –
OCC1c2ccccc2-n2nc(-c3ccccc3)c(O)c21 (configuration not stated) | > 200 µM | 3.31 µM | –
O=S1(=O)OC2(c3ccccc31)c1cc(Br)c(O)c(O)c1Oc1c2cc(Br)c(O)c1O | > 39.8 µM | 36.3 µM | –
CC(C)(C)N=NNc1cn(C2OC(CO)C(O)C2O)c(=O)[nH]c1=O (configuration not stated) | > 724 µM | > 724 µM | –
COc1c2occc2c(S(=O)(=O)O)c2ccc(=O)oc12 | > 302 µM | > 302 µM | –
O=C1CCC(=O)N1Cc1ccccc1N=[N+]([O-])c1ccccc1CN1C(=O)CCC1=O | – | > 200 µM | inactive
COC(=O)[C@H](Cc1c[nH]c2ccccc12)NP(=O)(O)OC[C@H]1O[C@@H](n2cc(C)c(=O)[nH]c2=O)C[C@@H]1N=[N+]=[N-] | 28.2 µM | > 200 µM | –
O=C(CBr)OCCCS(=O)(=O)O | > 200 µM | > 200 µM | –
Cn1c2ccccc2c2ncc3[nH]c4ccccc4c3c21 | – | – | inactive
CCC1(O)C(=O)Nc2ccccc2C1=O (configuration not stated) | > 200 µM | > 200 µM | –
CCOC(=O)C(=O)Nc1ccccc1C(C)C | > 151 µM | > 151 µM | –
CC1(C)[C@@H]2CC[C@]13CC(=O)O[C@@H]3C2 | > 724 µM | > 724 µM | –
S=c1[nH]nc(CNc2ccc(-c3n[nH]c(=S)n3-c3ccc(Cl)cc3)cc2)n1-c1ccc(Cl)cc1 | > 200 µM | 31.6 µM | –
COc1nc(N2CCNCC2)nc2c1CCCC2 | – | – | inactive
O=C1CCSC(=O)N1c1ccccc1 | > 200 µM | > 200 µM | –
CC(NC(C#N)CC12CC3CC(CC(C3)C1)C2)c1ccccc1 (configuration not stated) | > 200 µM | 41.7 µM | –
O=[N+]([O-])c1ccc(N2N=C(c3ccc4ccccc4c3O)CC2c2ccc(Cl)cc2)c([N+](=O)[O-])c1 (configuration not stated) | > 200 µM | 43.7 µM | –
CS(=O)(=O)c1c(N)c2nc(Cl)cn2c2nc3ccccc3nc12 | > 5.75 µM | > 5.75 µM | –
Cc1ccc2[nH]c(=O)c(-c3cnc(=O)[nH]n3)c(O)c2c1 | 3.02 µM | 15.1 µM | –

Structure (SMILES) | EC50 | IC50 | outcome
CCN1CCN(c2ccc(Nc3ccnc4ccc5nn(C)nc5c34)cc2)CC1 | > 18.6 µM | 7.24 µM | –
O=C(c1cc(Cl)ccc1Cl)N1CCN(c2ccc(Cl)c(Cl)c2)CC1 | > 200 µM | 25.1 µM | –
Cc1c2ccccc2c(CSC(=N)N)c2ccccc12 | > 200 µM | 0.112 µM | –
CC(C)(C)N=P(c1ccccc1)(c1ccccc1)c1ccccc1 | > 200 µM | 191 µM | –
NC1=NN(c2ccccc2)C(=O)C1C(=O)C(=O)Nc1nccs1 (configuration not stated) | > 79.4 µM | > 79.4 µM | –
CCCCON1C[C@H](OC(C)=O)C(OC(C)=O)[C@H](OC(C)=O)C1 (some centres not stated) | > 200 µM | > 200 µM | –
O=[N+]([O-])c1ccc(CCc2ccc([N+](=O)[O-])cc2S(=O)(=O)O)c(S(=O)(=O)O)c1 | – | – | inactive
COc1ccc(C)c2c1N[C@](C)([C@]1(C)Nc3c(OC)ccc(C)c3C1=O)C2=O | > 100 µM | > 100 µM | –
COc1cc2c(cc1OC)C(Cl)C(c1cc(OC)c(OC)c(OC)c1)=C2Cl (configuration not stated) | – | – | inactive
N#CC(C(N)=O)C(CC(=O)c1ccccc1)c1ccccc1 (configuration not stated) | > 200 µM | 145 µM | –
COC(=O)/C(C#N)=C/NC(=S)Nc1ccccc1 | > 200 µM | > 200 µM | –
CC(C)[Si]1(C(C)C)OCC2OC(n3ccc(=O)[nH]c3=O)C(O)(CO)C2O[Si](C(C)C)(C(C)C)O1 (configuration not stated) | > 200 µM | 20.9 µM | –
O=C1C=C(N2CCCC2)C=C(N2CCCC2)C1 | > 155 µM | 81.3 µM | –
CC(/C=N\NC(=S)N1CCCCC1)=N/NC(=S)N1CCCCC1 | > 200 µM | 1.78 µM | –
COc1cc2c(cc1OC)C1[C@@H](c3ccccc3)OCN1CC2 (some centres not stated) | – | – | inactive
O=C1CN(Cc2ccc(Cl)cc2)CC(=O)N2Cc3ccccc3CN12 | > 191 µM | 148 µM | –
C1=CC2CCC1C1CN(CCCN3CCOCC3)CC21 (configuration not stated) | > 708 µM | > 708 µM | –
c1ccc(CN2CCC(=NN3CCCCC3)CC2)cc1 | > 200 µM | 89.1 µM | –
Cc1cn(C2CC(N=[N+]=[N-])C(COC(=O)C3OC(C)(C)O[C@@]34CC[C@H]3[C@@H]5CCC6=CC(=O)C=C[C@]6(C)[C@H]5[C@@H](O)C[C@@]34C)O2)c(=O)[nH]c1=O (some centres not stated) | 0.0589 µM | 11.5 µM | –
CCCOc1ccc(/C(Cl)=C(\C=O)c2ccc(OC)c(OC)c2)cc1OCCC | > 4.79 µM | > 4.79 µM | –
NC(CC1=CS(=O)(=O)c2ccc(Cl)cc21)C(=O)O (configuration not stated) | > 200 µM | > 200 µM | –
COc1cc2c(cc1OC)C(Cc1ccc(O)cc1)N(C)CC2 (configuration not stated) | – | – | inactive
